Assay [1] has as its system MEF PARP-2 (-/-) KO cells. In words: Cell viability assay in MEF PARP-2 KO-/- cells. It is filed as cell-based, mouse. To be noted: NA = Not applicable, no cell death observed. On the procedure:
(§1) Genetically engineered PARP-1 and PARP-2 double knockout mouse embryonic fibroblast (MEF) were used for cell viability studies with wildtype control.
(§2) Cell viability assays were carried out using four cell lines including OVCAR8, MEF wt, MEF PARP-1 (−/−) KO, and MEF PARP-2 (−/−) KO as described in Makvandi cited above. Briefly, cells were seeded in black wall clear bottom 96-well plates at concentrations of 1,000 cells/well. […] Plates were read on an Enspire multimode plate reader (Perkin Elmer). Data was normalized to percent survival at each concentration evaluated by diving the luminescent signal in treated wells vs. the average of vehicle controls. Experiments were repeated three times and all compounds were assayed during each experiment.
(§3) This isogenic model was selected due to the highly conserved nature of the PARP catalytic domain, all-owing investigation in enzyme specificity.
The cell cytotoxicity profile of these selected compounds in MEF PARP-2 KO−/− cell lines was then analyzed as described above.

A further assay deals with PARP-1 (Homo sapiens, UniProt P09874). In words: PARP-1 radioligand binding in live OVCAR8 cells ([125I]KX1 competition). The note with it: for IC50: radioligand binding in OVCAR8 cells; for enzyme affinity in contrast to respective boc-protected analogue: free-amine derivatives. On the procedure:
Cells were cultured using standard techniques at 37° C. with 5% CO2 and 15% 02. […] Genetically engineered PARP-1 and PARP-2 double knockout mouse embryonic fibroblast (MEF) were used for cell viability studies with wildtype control. All cells were cultured in RPMI 1640 with 10% FBS and 1% penicillin/streptomycin.
The affinity of each compound for the PARP-1 enzyme was evaluated using a radioligand binding method described in Makvandi, A radiotracer strategy to quantify PARP-1 expression in vivo provides a biomarker that can enable patient selection for PARP inhibitor therapy. Cancer Research 2016. Briefly, OVCAR8 ovarian cancer cells were seeded in 96-well Stripwell plates at a density of 40,000 cells/well 24 hrs prior to the study. On the day of study, compounds were diluted in RPMI to concentrations of 100 μM-0.064 nM. […] Reactions were allowed to equilibrate for 1 hr and were then washed with 200 μL of PBS. Wells were separated and counted on an automatic Wizard gamma counter (Perkin Elmer, Waltham Mass.). […] Experiments were repeated three times with adjusting dose concentrations to increase accuracy of IC50 values.
Compounds 10-17 were evaluated for PARP-1 inhibition using a radioligand binding assay protocol with BRCA1 methylated ovarian cancer cells (OVCAR8) as described above. See, Table 3. […] Compared to 1a, oxaazaspiro analogue 1b performed slightly better with scaffold 10b displaying a PARP-1 binding value of 24.9 nM.

The test system of the next assay is MEF WT cells. In words: Cell viability assay in MEF WT cells. It is filed as cell-based, mouse. To be noted: NA = Not applicable, no cell death observed. On the procedure:
as §1, §2, §3

Chain of PARP-1 (P09874 whole entry): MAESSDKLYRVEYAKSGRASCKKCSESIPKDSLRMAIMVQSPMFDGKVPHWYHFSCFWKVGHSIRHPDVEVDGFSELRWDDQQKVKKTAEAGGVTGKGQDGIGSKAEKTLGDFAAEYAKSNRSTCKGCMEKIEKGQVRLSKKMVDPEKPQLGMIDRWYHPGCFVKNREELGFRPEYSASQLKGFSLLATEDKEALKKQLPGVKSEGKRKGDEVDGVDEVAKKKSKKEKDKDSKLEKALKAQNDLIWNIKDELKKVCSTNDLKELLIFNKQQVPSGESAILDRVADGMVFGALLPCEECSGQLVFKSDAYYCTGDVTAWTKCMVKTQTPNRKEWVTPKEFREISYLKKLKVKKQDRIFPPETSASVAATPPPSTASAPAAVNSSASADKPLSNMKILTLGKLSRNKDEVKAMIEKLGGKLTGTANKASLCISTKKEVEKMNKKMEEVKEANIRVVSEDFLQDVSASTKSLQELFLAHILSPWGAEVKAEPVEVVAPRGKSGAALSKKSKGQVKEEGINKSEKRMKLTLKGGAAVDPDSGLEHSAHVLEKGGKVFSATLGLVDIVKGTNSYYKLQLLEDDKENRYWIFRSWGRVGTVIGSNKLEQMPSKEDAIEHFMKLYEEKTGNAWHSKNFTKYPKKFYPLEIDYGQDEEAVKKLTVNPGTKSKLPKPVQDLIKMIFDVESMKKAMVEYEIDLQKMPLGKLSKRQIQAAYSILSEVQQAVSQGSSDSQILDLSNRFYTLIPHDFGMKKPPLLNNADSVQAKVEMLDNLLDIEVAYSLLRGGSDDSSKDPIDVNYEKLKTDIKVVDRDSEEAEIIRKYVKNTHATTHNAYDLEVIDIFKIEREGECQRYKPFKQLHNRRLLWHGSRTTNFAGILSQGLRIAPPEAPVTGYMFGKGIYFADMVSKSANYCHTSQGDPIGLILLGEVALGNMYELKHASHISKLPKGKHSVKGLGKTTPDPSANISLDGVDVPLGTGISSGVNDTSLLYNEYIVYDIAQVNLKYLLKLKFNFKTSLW

The term EC50 denotes the concentration at which the effect is half-maximal. High values mean weaker potency, low ones greater potency. For `O=C(c1cc(Cc2n[nH]c(=O)c3ccccc23)ccc1F)N1CC2(CCC2)C1` [Compound 10a, 4-(4-Fluoro-3-(2-azaspiro[3.3]heptane-2-carbonyl)benzyl)phthalazin-1(2H)-one], the EC50 was 49 µM in assay [1] (Mus musculus), 0.0339 ± 0.0015 µM on PARP-1 and 48.3 µM in the assay with MEF WT cells (Mus musculus).
For orientation: IC50 means the concentration at which inhibition is half-maximal. Consider `O=C(c1cc(Cc2n[nH]c(=O)c3ccccc23)ccc1F)N1CC2(COC2)C1` [Compound 10b, 4-(4-Fluoro-3-(2-oxa-6-azaspiro[3.3]heptane-6-carbonyl)benzyl)phthalazin-1(2H)-one], for which the EC50 was 53.3 µM in assay [1] (Mus musculus), 0.0249 µM on PARP-1 and 52.2 µM with MEF WT cells (Mus musculus). On PARP-1, this compound had an IC50 of 0.0249 µM.
As for `CC(C)(C)OC(=O)N1CC2(C1)CN(C(=O)c1cc(Cc3n[nH]c(=O)c4ccccc34)ccc1F)C2` [Compound 10c, Tert-butyl 6-(2-fluoro-5-((4-oxo-3,4-dihydrophthalazin-1-yl)methyl)benzoyl)-2,6-diazaspiro[3.3]heptane-2-carboxylate], the EC50 in assay [1] (Mus musculus) is 24.7 µM; at PARP-1 it was 0.552 µM; in the assay on MEF WT cells (Mus musculus) it was 31.1 µM. Also, the “fold lower PARP-1 affinity compared to the methylene congener” value on PARP-1 (10c vs 10a, 15b vs 15a) is reported as ~16 fold. The compound also returned an IC50 on PARP-1 of 0.552 µM.
As to `O=C(c1cc(Cc2n[nH]c(=O)c3ccccc23)ccc1F)N1CC2(CNC2)C1` [Compound 10d, 4-(4-Fluoro-3-(2,6-diazaspiro[3.3]heptane-2-carbonyl)benzyl)phthalazin-1(2H)-one], the EC50 at PARP-1 is 2.39 µM.
`O=C(c1cc(Cc2n[nH]c(=O)c3ccccc23)ccc1F)N1CC2(C1)CN(C(=O)C1CC1)C2` [Compound 10e, 4-(3-(6-(Cyclopropanecarbonyl)-2,6-diazaspiro[3.3]heptane-2-carbonyl)-4-fluorobenzyl)phthalazin-1(2H)-one] showed an EC50 in assay [1] (Mus musculus) of 59.8 µM. For the same compound, at PARP-1, the 50% effective concentration (EC50) is 0.0126 µM and the IC50 was found to be 0.0126 µM.
For `O=C(c1cc(Cc2n[nH]c(=O)c3ccccc23)ccc1F)N1CCC12CCC2` [Compound 11a, 4-(4-Fluoro-3-(I-azaspiro[3.3]heptane-1-carbonyl)benzyl)phthalazin-1(2H)-one], the EC50 stood at 58.3 µM in assay [1] and 48 µM in the assay on MEF WT cells.
Take `CC(C)(C)OC(=O)N1CC2(CCN2C(=O)c2cc(Cc3n[nH]c(=O)c4ccccc34)ccc2F)C1` [Compound 11b, Tert-butyl 1-(2-fluoro-5-((4-oxo-3,4-dihydrophthalazin-1-yl)methyl)benzoyl)-1,6-diazaspiro[3.3]heptane-6-carboxylate]: the EC50 is 35.8 µM in assay [1] (Mus musculus) and 42.9 µM with MEF WT cells (Mus musculus).
As for `O=C(c1cc(Cc2n[nH]c(=O)c3ccccc23)ccc1F)N1CCC12CNC2` [Compound 11c, 4-(4-Fluoro-3-(1,6-diazaspiro[3.3]heptane-1-carbonyl)benzyl)phthalazin-1(2H)-one], at PARP-1, the “enzyme affinity in contrast to respective boc-protected analogue” value was “slight increase in enzyme affinity”.
Take `O=C(C1CC1)N1CC2(CCN2C(=O)c2cc(Cc3n[nH]c(=O)c4ccccc34)ccc2F)C1` [Compound 11d, 4-(3-(6-(Cyclopropanecarbonyl)-1,6-diazaspiro[3.3]heptane-1-carbonyl)-4-fluorobenzyl)phthalazin-1(2H)-one]: the EC50 was 46.7 µM in assay [1] (Mus musculus) and 53.2 µM in the assay with MEF WT cells (Mus musculus).
In turn, `O=C(c1cc(Cc2n[nH]c(=O)c3ccccc23)ccc1F)N1CC2(CCNCC2)C1` [Compound 12c, 4-(4-Fluoro-3-(2,7-diazaspiro[3.5]nonane-2-carbonyl)benzyl)phthalazin-1(2H)-one] registered an EC50 in assay [1] (Mus musculus) of 68.5 µM. In addition, at PARP-1, the EC50 is 1.42 µM and the “enzyme affinity in contrast to respective boc-protected analogue” value is “slight increase in enzyme affinity”.
As for `O=C(c1cc(Cc2n[nH]c(=O)c3ccccc23)ccc1F)N1CC2(CCN(C(=O)C3CC3)CC2)C1` [Compound 12d, 4-(3-(7-(Cyclopropanecarbonyl)-2,7-diazaspiro[3.5]nonane-2-carbonyl)-4-fluorobenzyl)phthalazin-1(2H)-one], the results for the EC50 (in assay [1] (Mus musculus); on PARP-1; in the assay with MEF WT cells (Mus musculus)) were 57.2 µM, 0.1 µM and 49.3 µM, respectively.
For `O=C(c1cc(Cc2n[nH]c(=O)c3ccccc23)ccc1F)N1CCC12CCCCC2` [Compound 13a, 4-(4-Fluoro-3-(1-azaspiro[3.5]nonane-1-carbonyl)benzyl)phthalazin-(2H)-one], in that order: 78.8 µM, 0.284 ± 0.0012 µM and 32.6 µM.
In the case of `CC(C)(C)OC(=O)N1CCC2(CC1)CCN2C(=O)c1cc(Cc2n[nH]c(=O)c3ccccc23)ccc1F` [Compound 13b, Tert-butyl 1-(2-fluoro-5-((4-oxo-3,4-dihydrophthalazin-1-yl)methyl)benzoyl)-1,7-diazaspiro[3.5]nonane-7-carboxylate], the EC50 is 33.2 µM in assay [1] (Mus musculus), 2.97 µM on PARP-1, ~23 µM with MEF WT cells (Mus musculus) and 23.3 µM in the assay with MEF WT cells.
Regarding `O=C(c1cc(Cc2n[nH]c(=O)c3ccccc23)ccc1F)N1CCC12CCNCC2` [Compound 13c, 4-(4-Fluoro-3-(1,7-diazaspiro[3.5]nonane-1-carbonyl)benzyl)phthalazin-1(2H)-one], in assay [1] (Mus musculus), the EC50 was determined as 106 µM. At PARP-1, this compound gave an EC50 of 0.11 µM and a half-maximal inhibitory concentration (IC50) of 0.11 µM. At PARP-1 (13c vs 13b), the “fold improvement of PARP-1 affinity upon removing the boc-group” value is ~29 fold.
Turning to `O=C(C1CC1)N1CCC2(CC1)CCN2C(=O)c1cc(Cc2n[nH]c(=O)c3ccccc23)ccc1F` [Compound 13d, 4-(3-(7-(Cyclopropanecarbonyl)-1,7-diazaspiro[3.5]nonane-1-carbonyl)-4-fluorobenzyl)phthalazin-1(2H)-one], the EC50 in assay [1] (Mus musculus) was 44.4 µM; at PARP-1, 0.431 µM; with MEF WT cells (Mus musculus), 47.5 µM.
The compound `CC(C)(C)OC(=O)N1CCC2(C1)CN(C(=O)c1cc(Cc3n[nH]c(=O)c4ccccc34)ccc1F)C2` [Compound 14b] had an IC50 on PARP-1 of 1.19 µM.
In turn, `O=C(c1cc(Cc2n[nH]c(=O)c3ccccc23)ccc1F)N1CCC2(CNC2)C1` [Compound 14c, 4-(4-Fluoro-3-(2,6-diazaspiro[3.4]octane-6-carbonyl)benzyl)phthalazin-1(2H)-one] gave an EC50 at PARP-1 of 1.24 µM.
For the compound `O=C(c1cc(Cc2n[nH]c(=O)c3ccccc23)ccc1F)N1CCC2(CCNC2)C1` (stereo not shown) [Compound 15c, 4-(4-Fluoro-3-(2,7-diazaspiro[4.4]nonane-2-carbonyl)benzyl)phthalazin-1(2H)-one], the figures for the concentration for a half-maximal effect (EC50) (in assay [1] (Mus musculus); at PARP-1) were 512 µM and 1.12 µM, respectively. For the same compound, at PARP-1, the “enzyme affinity in contrast to respective boc-protected analogue” value is on record as “slight increase in enzyme affinity”.
As for `O=C(c1cc(Cc2n[nH]c(=O)c3ccccc23)ccc1F)N1CCC2(CCN(C(=O)C3CC3)C2)C1` (stereo not shown) [Compound 15d, 4-(3-(7-(Cyclopropanecarbonyl)-2,7-dizaspiro[4.4]nonane-2-carbonyl)-4-fluorobenzyl)phthalazin-1(2H)-one], the results for the EC50 (in assay [1] (Mus musculus); at PARP-1) were 70.9 µM and 2.59 µM, respectively.
`O=C(c1cc(Cc2n[nH]c(=O)c3ccccc23)ccc1F)N1CCC2(CCNCC2)C1` [Compound 16c, 4-(4-Fluoro-3-(2,8-diazaspiro[4.5]decane-2-carbonyl)benzyl)phthalazin-1(2H)-one]: on PARP-1, the EC50 was 3.88 µM.
As for `O=C(c1cc(Cc2n[nH]c(=O)c3ccccc23)ccc1F)N1CCC2(CCNCC2)CC1` [Compound 17c, 4-(4-Fluoro-3-(3,9-diazaspiro[5.5]undecane-3-carbonyl)benzyl)phthalazin-1(2H)-one], the EC50 was 59.7 µM in assay [1] (Mus musculus) and 0.234 µM on PARP-1. Also, on PARP-1, the “enzyme affinity in contrast to respective boc-protected analogue” value is reported as “slight increase in enzyme affinity”.
Turning to `COC1CC(NC(=O)c2cc(Cc3n[nH]c(=O)c4ccccc34)ccc2F)C1` (stereo not shown) [Compound 18], the midpoint of the response at PARP-1, the EC50, lay at 0.0741 µM.
The compound `O=C(c1cc(Cc2n[nH]c(=O)c3ccccc23)ccc1F)N1CCC(c2ccc(F)cc2)CC1` [Compound 36, 4-(4-fluoro-3-(4-(4-fluorophenyl)piperidine-1-carbonyl)benzyl)phthalazin-1(2H)-one] showed an EC50 on PARP-1 of 0.0013 µM.
`O=C(c1cc(Cc2n[nH]c(=O)c3ccccc23)ccc1F)N1CC2(CC(OCCF)C2)C1` [Compound 37B, 4-(4-fluoro-3-(6-(2-fluoroethoxy)-2-azaspiro[3.3]heptane-2-carbonyl)benzyl)phthalazin-1(2H)-one] came in with a concentration for a half-maximal effect (EC50) on PARP-1 of 0.0107 ± 0.0011 µM.
The same measure, in the same setting: for `O=C(c1cc(Cc2n[nH]c(=O)c3ccccc23)ccc1F)N1CC2(CC(c3ccc(F)cc3)C2)C1` [Compound 39, 4-(4-fluoro-3-(6-(4-fluorophenyl)-2-azaspiro[3.3]heptane-2-carbonyl)benzyl)phthalazin-1(2H)-one] the value was 0.0028 µM.
